For 15 molecules, TGI results are on record in PubChem BioAssay (NCI).

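Exposure lasted 48 hours, with cells grown in 96-well plates and compounds tested at five concentrations. The concentration for full growth arrest is given as TGI.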 Some results are limits rather than exact numbers.

Experiment in all cases: NCI-60 cell line screen, 48 h
The subject of test [1] is CAKI-1 renal.
Test [2] deals with HOP-92 NSCLC.
The test system of test [3] is MALME-3M melanoma.
In test [4] the test system is MDA-N.
Test [5] has as its system NCI-H226 lung.
The subject of test [6] is RXF 393 renal.
Test [7] concerns SF-268 CNS.
Test [8] deals with T-47D breast.
Test [9] has as its system UO-31 renal.
In test [10] the test system is HS 578T breast.

On to `CO/C(=N\N=C\c1ccc(Cl)cc1Cl)c1ccncc1`, for which the TGI in [1], in test [2], in test [3], in [4], in test [5] and in test [6] was > 10 µM each time. Further, the TGI in test [7], in [8] and in [9] was > 10 µM each time.
With `O=C(CN1CCCCC1)c1ccc2c(c1)Sc1ccccc1O2`, the TGI in [1] stood at 37.2 µM; in test [2] it was 28 µM; in test [10] it was 21.6 µM; in test [3], 33.4 µM; in test [4] it was 34.5 µM; in test [5], 29 µM. The TGI is 21 µM in test [6], 33.9 µM in [7], 47.9 µM in [8] and 22.9 µM in test [9].
On to `O=C(NNc1cn[nH]c(=O)c1Cl)/C(=C/c1ccc2c(c1)OCO2)NC(=O)c1ccccc1`, for which the TGI in test [1] was 56.2 µM; in [2], > 100 µM; in test [4], > 100 µM; in test [5], > 100 µM; in test [8], > 100 µM; in test [9], > 100 µM.
As to `CC(=NCCN(CCN=C(C)c1c(O)cc(C)oc1=O)CCN=C(C)c1c(O)cc(C)oc1=O)c1c(O)cc(C)oc1=O`, the TGI in [10], in [4], in test [7], in test [8] and in test [9] was > 100 µM in each case.
For `O=C(OCCN1CCCCC1)C(c1ccccc1)C1(O)CCSCC1` (configuration not stated), the TGI in [1], in test [2], in test [10], in [3], in test [4] and in [5] was > 100 µM each time. The TGI in test [6], in [7], in test [8] and in [9] was > 100 µM each time.
For the molecule `Cc1ccc(-n2c(O)c3c(N)n[nH]c3c(C#N)c2=O)cc1`, the TGI in [1], in test [10], in test [3], in [4], in test [5] and in test [6] was > 100 µM each time. The TGI in test [7], in test [8] and in test [9] was > 100 µM each time.
Consider `O=C1C=C2CO[C@H]3OC[C@H](O)[C@@H]1[C@@H]23`, for which the TGI in test [1] was 89 µM; in [2], > 100 µM; in test [10] it was > 100 µM; in [3], 55 µM; in test [4], > 100 µM; in test [6] it was 42 µM. Also, the TGI in [7] was > 100 µM; in test [8] it was 67.3 µM; in test [9], > 100 µM.
Turning to `CC1(C)[C@@H](Cn2cnc3c(=O)[nH]c(N)nc32)CC[C@@]1(C)CO`, the TGI in test [1], in test [2], in test [10], in test [4], in test [5] and in [6] was > 100 µM in each case. Also, the TGI in test [7], in [8] and in test [9] was > 100 µM in each case.
With `O=C(Nc1nnc(-c2ccccc2)o1)C(SC(=S)N1CCOCC1)c1ccccc1` (configuration not stated), the TGI in test [1], in [10], in test [3], in test [4], in [5] and in test [6] was > 100 µM throughout. Moreover, the TGI in test [8] and in [9] was > 100 µM each time.
On to `CCCn1c(=O)c2ccccc2[n+]2c(-c3ccc([N+](=O)[O-])cc3)csc12`, for which the TGI in [1] is > 100 µM; in [2], > 100 µM; in test [10] it was > 100 µM; in test [4] it was > 100 µM; in test [5] it was > 100 µM; in test [6] it was 55.3 µM. In addition, the TGI in [7] is > 100 µM; in [8], > 100 µM; in [9] it was 97.3 µM.
Regarding `CCc1nn(S(=O)(=O)c2ccc(C)cc2)c2c1CS(=O)(=O)CC2`, the TGI in [1] was > 100 µM; in test [10] it was 87.7 µM; in test [4] it was > 100 µM; in test [6], > 100 µM; in test [7] it was > 100 µM; in test [8], > 100 µM. In addition, in test [9], the TGI is > 100 µM.
Regarding `CC(C)[C@H]1NC(=O)[C@H]2N=C(O[C@@H]2C)[C@@H]2CCCN2C(=O)[C@H](Cc2ccccc2)NC(=O)[C@@H]2CSC(=N2)[C@@H](Cc2ccccc2)NC(=O)[C@@H]2CSC1=N2`, the TGI in [1], in [10], in test [3], in test [4], in [5] and in test [6] was > 100 µM in each case. For the same molecule, the TGI in [7], in test [8] and in [9] was > 100 µM in each case.
`CCN(CC)C(=S)N/N=C/c1ccccn1`: the TGI is > 100 µM in test [1]; 2.44 µM in test [2]; > 100 µM in test [10]; > 100 µM in test [3]; > 100 µM in test [4]; 0.989 µM in test [5]. Besides, the TGI in test [7] was > 66.4 µM; in test [8], > 100 µM; in test [9] it was 2.1 µM.
Turning to `Cc1cn(CC2=NCCCN2)c(=O)[nH]c1=O`, the TGI in test [2], in test [10], in [3], in test [4], in [5] and in [6] was > 100 µM in each case. Moreover, the TGI in test [7], in [8] and in [9] was > 100 µM throughout.
`O=C1OC2(C(F)(F)F)Oc3ccccc3CN2C12CCCCC2` (configuration not stated): the TGI in test [1] is 56.1 µM; in test [2], 61.7 µM; in test [3], 53.2 µM; in test [4], > 100 µM; in test [5], 90.8 µM; in test [6], 48.9 µM. Moreover, the values for the TGI in test [7], in [8] and in test [9] were > 100 µM, > 100 µM and 84.3 µM, respectively.
